Results published in article PMC4049391, “Cadmium exposure and sulfate limitation reveal differences in the transcriptional control of three sulfate transporter (Sultr1;2) genes in Brassica juncea” (BMC Plant Biology, 2014).

Target: T1, AtSultr2;1 (Arabidopsis thaliana, UniProt O04722)
T1 construct: gene SULTR2; full-length ORF from Arabidopsis root RNA in pESC-TRP (GAL10 promoter), expressed in Saccharomyces cerevisiae CP154-7A
T1 sequence (O04722 1-677): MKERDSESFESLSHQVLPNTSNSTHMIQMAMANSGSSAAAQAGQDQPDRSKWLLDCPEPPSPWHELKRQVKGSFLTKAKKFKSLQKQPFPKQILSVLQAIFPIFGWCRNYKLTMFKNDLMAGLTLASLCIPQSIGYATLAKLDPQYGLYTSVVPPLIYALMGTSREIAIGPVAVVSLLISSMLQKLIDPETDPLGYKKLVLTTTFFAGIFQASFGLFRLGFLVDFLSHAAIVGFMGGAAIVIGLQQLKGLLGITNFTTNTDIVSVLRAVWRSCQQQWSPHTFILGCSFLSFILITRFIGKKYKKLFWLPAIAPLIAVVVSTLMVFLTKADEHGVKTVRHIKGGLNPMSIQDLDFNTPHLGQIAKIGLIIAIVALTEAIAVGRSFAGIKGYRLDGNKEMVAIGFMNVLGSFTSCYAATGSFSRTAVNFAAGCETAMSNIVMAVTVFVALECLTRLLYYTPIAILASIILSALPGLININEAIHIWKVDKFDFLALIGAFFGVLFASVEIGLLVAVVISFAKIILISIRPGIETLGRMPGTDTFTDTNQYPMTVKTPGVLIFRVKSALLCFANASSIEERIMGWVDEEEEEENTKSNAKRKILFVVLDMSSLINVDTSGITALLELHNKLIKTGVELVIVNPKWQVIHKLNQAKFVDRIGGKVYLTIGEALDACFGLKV
Assay: growth rate of complemented yeast versus sulfate, Michaelis-Menten fit
Type: cell-based
Details: growth constant as estimate of apparent Km; sulfate 0-3 mM as sole sulfur source, 28°C; yeast CP154-7A

O=S(=O)(O)O [sulfate]
kG: Estimation of the growth constant (kG) for sulfate
